Experimental data from PubChem BioAssay (NCI).
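The compound was tested at five concentrations on cells cultured in 96-well plates, with a 48-hour exposure period. TGI is the concentration that stops growth completely.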

Tests used:
Assay in all cases: NCI anticancer screen, dose series, 48 h
[1] = tested on: SW-620 colon
[2] = tested on: A498 renal
[3] = tested on: COLO 205 colon
[4] = tested on: OVCAR-3 ovarian
[5] = tested on: LOX IMVI melanoma
[6] = tested on: A549 NSCLC
[7] = tested on: HCT-116 colon
[8] = tested on: KM12 colon
[9] = tested on: SN12C renal
[10] = tested on: OVCAR-5 ovarian
[11] = tested on: OVCAR-8 ovarian
[12] = tested on: UO-31 renal
[13] = tested on: SF-295 CNS
[14] = tested on: SK-OV-3 ovarian
[15] = tested on: UACC-62 melanoma
[16] = tested on: OVCAR-4 ovarian
[17] = tested on: HCC-2998 colon
[18] = tested on: CCRF-CEM leukemia
[19] = tested on: SNB-75 CNS
[20] = tested on: HOP-62 NSCLC

Row | SMILES | TGI [1] [µM] | TGI [2] [µM] | TGI [3] [µM] | TGI [4] [µM] | TGI [5] [µM] | TGI [6] [µM] | TGI [7] [µM] | TGI [8] [µM] | TGI [9] [µM] | TGI [10] [µM] | TGI [11] [µM] | TGI [12] [µM] | TGI [13] [µM] | TGI [14] [µM] | TGI [15] [µM] | TGI [16] [µM] | TGI [17] [µM] | TGI [18] [µM] | TGI [19] [µM] | TGI [20] [µM]
1 | CCOc1ccc2nc(-c3ccc(O)cc3)sc2c1 | > 100 | > 100 | > 100 | > 100 | > 100 | > 100 | > 100 | > 100 | > 100 | > 100 | > 100 | > 100 | 61.6 | 94.3 | > 100 |  |  |  |  | 
2 | CC1(C)CC23C4COC(=O)C2CCC1C3CC4=O (stereo not drawn) | 10.2 | 13.8 | 33.6 | 27.7 | 22.6 | 70.3 | 21.9 | 27.2 | 42.5 | 72.4 | 46.6 | 90.1 | 53.5 | 104 | 28.7 | 64.2 | 37.2 | 43.4 | 57.6 | 59.3
3 | O=[N+]([O-])c1nc(-c2ccccn2)[nH]c1[N+](=O)[O-] | > 100 | > 100 | > 100 | > 100 | > 100 | > 100 | 49 | > 100 | > 100 | > 100 |  | > 100 | > 100 | > 100 | 85.7 | > 100 | > 100 | > 100 | > 100 | > 100
4 | O=C1OC(c2ccccc2)=N/C1=C\c1cccnc1 | > 100 |  |  | > 100 |  | > 100 |  | > 100 |  | > 100 | > 100 | > 100 | > 100 | > 100 | > 100 | > 100 | > 100 | > 100 | > 100 | > 100
5 | N/C(=N\N=C/c1ccccc1O)NO | > 100 | 44.4 | > 27.4 | > 100 | > 100 | > 100 | 47.8 | > 100 | > 100 | > 100 | > 43.7 | > 95.5 | > 34.4 | > 87.1 | 38.4 | 31.1 | 25.6 | > 50.9 | > 29.9 | > 60.8
6 | COc1cc2c(cc1OC)-c1cc3ccccc3c[n+]1CC2 | > 100 |  | > 100 | > 100 | > 100 | > 100 | > 100 | > 100 | > 100 | > 100 | > 100 | > 100 | > 100 | > 100 | > 100 | > 100 | > 100 | > 100 | > 100 | > 100
7 | Nc1ncnc2c1ncn2C1OC(COP(=O)(O)O)C(O)C1O (stereo not drawn) | > 50 | > 50 | > 50 | > 50 | > 50 | > 50 | > 50 | > 50 | > 50 | > 50 | 15.2 | > 50 | > 50 | > 50 | > 50 | > 50 | > 50 | > 50 | > 50 | > 50
8 | O=C1OC[C@@H]2[C@@H](O)CCCCCN12 | > 100 | > 100 | > 100 | > 100 | > 100 | > 100 | > 100 | > 100 | > 100 | > 100 | > 100 | > 100 | > 100 | > 100 | > 100 | > 100 | > 100 | > 100 | > 100 | > 100
